Earlier results, collected in patent US20200230141A1, “BI-LAYER PHARMACEUTICAL TABLET FORMULATION” (ViiV Healthcare Company, priority 2017, published 2020).
Where two headings read alike, the source gives them in different places.

Tests used:
[1] = not told
[2] = steady state, HIV-1-infected adults
HIV-1 strains = settings: broad range of HIV-1 strains
[3] = typical / standard physiologic conditions

SMILES | permeability [1] | Cmax, geometric mean (% CV) ([2]; 50 mg once daily) | Cmin, geometric mean (% CV) ([2]; 50 mg once daily) | AUC(0-24), geometric mean (% CV) ([2]; 50 mg once daily, population PK (SPRING-1, SPRING-2)) | Cmax, geometric mean (% CV) ([2]; 50 mg twice daily) | Cmin, geometric mean (% CV) ([2]; 50 mg twice daily) | AUC(0-24), geometric mean (% CV) ([2]; 50 mg twice daily, population PK (VIKING, VIKING-3)) | potency (HIV-1 strains) | solubility [3]
Nc1ccn([C@@H]2CS[C@H](CO)O2)c(=O)n1 (single isomer, unassigned) [lamivudine] | highly permeable |  |  |  |  |  |  |  | 
C[C@@H]1CCO[C@H]2Cn3cc(C(=O)NCc4ccc(F)cc4F)c(=O)c(O)c3C(=O)N12 [Dolutegravir, (4R,12aS)—N-[(2,4-difluorophenyl)methyl]-7-hydroxy-4-methyl-6,8-dioxo-3,4,12,12a-tetrahydro-2H-pyrido[5,6]pyrazino[2,6-b][1,3]oxazine-9-carboxamide] |  | 3.67 (20) mcg/mL | 1.11 (46) mcg/mL | 53.6 (27) mcg · h/mL | 4.15 (29) mcg/mL | 2.12 (47) mcg/mL | 75.1 (35) mcg · h/mL | subnanomolar | slightly soluble
